Data from PubChem BioAssay AID248 (DTP/NCI, 2004).
Several values for one entry are separate records, joined by “and”; a condition that tells them apart may be missing. Equal values may be shown once. Toxic doses and inconclusive results are not listed. No stated cut-off is given here; in the data, active means T/C of 150% or more; inactive means T/C below 125%.

Tested on: L1210 leukemia ip in BDF1 mice, survival T/C
Experiment: NCI In Vivo Anticancer Drug Screen. Data for tumor model L1210 Leukemia (intraperitoneal) in B6D2F1 (BDF1) mice
Conditions: endpoint: mean survival time, higher = longer survival
In short: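 Value reflects the ratio of survival in compound-treated mice to survival in vehicle-treated controls, with both groups carrying the same transplanted tumor.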

[1] = dose: 100.0 mg/kg/injection, schedule: Q04DX002 (ip), vehicle: Klucel (hydroxypropylcellulose) (HPC)
[2] = dose: 200.0 mg/kg/injection, schedule: Q04DX002 (ip), vehicle: Klucel (hydroxypropylcellulose) (HPC)
[3] = dose: 400.0 mg/kg/injection, schedule: Q04DX002 (ip), vehicle: Klucel (hydroxypropylcellulose) (HPC)
[4] = dose: 25.0 mg/kg/injection, schedule: Q04DX003 (ip), vehicle: Klucel (hydroxypropylcellulose) (HPC)
[5] = dose: 50.0 mg/kg/injection, schedule: Q04DX003 (ip), vehicle: Klucel (hydroxypropylcellulose) (HPC)
[6] = dose: 100.0 mg/kg/injection, schedule: Q04DX003 (ip), vehicle: Klucel (hydroxypropylcellulose) (HPC)
[7] = dose: 200.0 mg/kg/injection, schedule: Q04DX003 (ip), vehicle: Klucel (hydroxypropylcellulose) (HPC)
[8] = dose: 100.0 mg/kg/injection, schedule: Q01DX001 (ip), vehicle: carboxymethylcellulose (CMC)
[9] = dose: 100.0 mg/kg/injection, schedule: Q04DX002 (ip), vehicle: saline with Tween-80
[10] = dose: 200.0 mg/kg/injection, schedule: Q04DX002 (ip), vehicle: saline with Tween-80
[11] = dose: 100.0 mg/kg/injection, schedule: Q04DX003 (ip), vehicle: saline with Tween-80
[12] = dose: 200.0 mg/kg/injection, schedule: Q04DX003 (ip), vehicle: saline with Tween-80
[13] = dose: 400.0 mg/kg/injection, schedule: Q04DX003 (ip), vehicle: saline with Tween-80
[14] = dose: 100.0 mg/kg/injection, schedule: Q04DX003 (ip), vehicle: saline
[15] = dose: 100.0 mg/kg/injection, schedule: Q01DX009 (ip), vehicle: saline
[16] = dose: 12.5 mg/kg/injection, schedule: Q01DX009 (ip), vehicle: saline
[17] = dose: 25.0 mg/kg/injection, schedule: Q01DX009 (ip), vehicle: saline
[18] = dose: 50.0 mg/kg/injection, schedule: Q01DX009 (ip), vehicle: saline

Measured: T/C

Nc1ccccc1C(=O)N/N=C/c1ccc(Cl)cc1Cl
inactive: dose: 100.0 mg/kg/injection, schedule: Q01DX009 (ip), vehicle: Klucel (hydroxypropylcellulose) (HPC) 89 % of control | [1] 95 % of control | dose: 200.0 mg/kg/injection, schedule: Q01DX009 (ip), vehicle: Klucel (hydroxypropylcellulose) (HPC) 98 % of control | [2] 102 % of control | [3] 104 % of control

O=C1CCCCCCCCCCCCCC1
inactive: [1] 102 % of control | [2] 102 % of control | [3] 102 % of control

COc1ccc(C2=C(C)CC3c4cc(OC)c(OC)cc4CCN3C2)cc1OC (stereo not given)
inactive: dose: 52.0 mg/kg/injection, schedule: Q01DX001 (ip), vehicle: carboxymethylcellulose (CMC) 101 % of control | dose: 78.0 mg/kg/injection, schedule: Q01DX001 (ip), vehicle: carboxymethylcellulose (CMC) 104 % of control | dose: 177.0 mg/kg/injection, schedule: Q01DX001 (ip), vehicle: carboxymethylcellulose (CMC) 118 % of control

Cc1ccccc1-n1c(C)cc(=O)c(C(=O)Cl)c1C
inactive: [4] 95 % of control | [5] 95 % of control | dose: 75.0 mg/kg/injection, schedule: Q04DX003 (ip), vehicle: Klucel (hydroxypropylcellulose) (HPC) 97 % of control | [6] 103 % of control | [7] 110 % of control

C1SCC12CSC2
inactive: dose: 6.25 mg/kg/injection, schedule: Q01DX001 (ip), vehicle: saline with Tween-80 93 % of control | dose: 12.5 mg/kg/injection, schedule: Q01DX001 (ip), vehicle: saline with Tween-80 96 % of control | dose: 25.0 mg/kg/injection, schedule: Q01DX001 (ip), vehicle: saline with Tween-80 104 % of control

CCCCCCCCN(NC(=O)c1ccccc1)S(=O)(=O)c1ccccc1
inactive: dose: 25.0 mg/kg/injection, schedule: Q01DX001 (ip), vehicle: carboxymethylcellulose (CMC) 100 % of control | dose: 25.0 mg/kg/injection, schedule: Q04DX003 (ip), vehicle: carboxymethylcellulose (CMC) 96 % of control | dose: 50.0 mg/kg/injection, schedule: Q01DX001 (ip), vehicle: carboxymethylcellulose (CMC) 100 % of control | dose: 50.0 mg/kg/injection, schedule: Q01DX009 (ip), vehicle: carboxymethylcellulose (CMC) 97 % of control and 89 % of control | dose: 50.0 mg/kg/injection, schedule: Q04DX002 (ip), vehicle: carboxymethylcellulose (CMC) 100 % of control and 107 % of control | dose: 50.0 mg/kg/injection, schedule: Q04DX003 (ip), vehicle: carboxymethylcellulose (CMC) 96 % of control | [8] 98 % of control | dose: 100.0 mg/kg/injection, schedule: Q01DX009 (ip), vehicle: carboxymethylcellulose (CMC) 100 % of control and 105 % of control | dose: 100.0 mg/kg/injection, schedule: Q04DX002 (ip), vehicle: carboxymethylcellulose (CMC) 100 % of control and 101 % of control | dose: 200.0 mg/kg/injection, schedule: Q04DX002 (ip), vehicle: carboxymethylcellulose (CMC) 102 % of control and 103 % of control

S=C(c1cccs1)N1CCOCC1
inactive: dose: 100.0 mg/kg/injection, schedule: Q04DX003 (ip), vehicle: gum acacia 93 % of control | dose: 200.0 mg/kg/injection, schedule: Q04DX003 (ip), vehicle: gum acacia 100 % of control | dose: 400.0 mg/kg/injection, schedule: Q04DX003 (ip), vehicle: gum acacia 91 % of control

CCCCc1cn(C(=O)CCCl)nn1
inactive: [9] 100 % of control | [10] 100 % of control

CN(C)c1nc2ccccc2n1C1OC(CO)C(O)C1O (stereo not given)
inactive: dose: 100.0 mg/kg/injection, schedule: Q01DX001 (ip), vehicle: acetone 106 % of control | dose: 200.0 mg/kg/injection, schedule: Q01DX001 (ip), vehicle: acetone 103 % of control | dose: 400.0 mg/kg/injection, schedule: Q01DX001 (ip), vehicle: acetone 97 % of control

C=CCc1ccc(OCC(=O)O)c(OC)c1
inactive: [11] 106 % of control | [12] 93 % of control | [13] 97 % of control

CCCSc1ncnc2c1nc(C)n2CO
inactive: dose: 100.0 mg/kg/injection, schedule: Q01DX001 (ip), vehicle: saline 114 % of control | dose: 200.0 mg/kg/injection, schedule: Q01DX001 (ip), vehicle: saline 114 % of control | dose: 400.0 mg/kg/injection, schedule: Q01DX001 (ip), vehicle: saline 121 % of control

CCCSc1ccccn1
inactive: dose: 25.0 mg/kg/injection, schedule: Q04DX003 (ip), vehicle: saline 101 % of control | dose: 50.0 mg/kg/injection, schedule: Q04DX003 (ip), vehicle: saline 93 % of control | [14] 95 % of control

Cc1ccc(S(=O)(=O)N(C)c2cc(Cl)c(C(N)=O)c(Cl)c2)cc1
inactive: dose: 100.0 mg/kg/injection, schedule: Q01DX001 (ip), vehicle: Klucel (hydroxypropylcellulose) (HPC) 93 % of control | dose: 100.0 mg/kg/injection, schedule: Q01DX009 (ip), vehicle: saline sonified 97 % of control | dose: 100.0 mg/kg/injection, schedule: Q01DX009 (ip), vehicle: saline with Tween-80 98 % of control | [11] 105 % of control | dose: 200.0 mg/kg/injection, schedule: Q01DX001 (ip), vehicle: Klucel (hydroxypropylcellulose) (HPC) 95 % of control | dose: 200.0 mg/kg/injection, schedule: Q01DX009 (ip), vehicle: saline sonified 105 % of control | dose: 200.0 mg/kg/injection, schedule: Q01DX009 (ip), vehicle: saline with Tween-80 90 % of control | [12] 101 % of control | dose: 400.0 mg/kg/injection, schedule: Q01DX001 (ip), vehicle: Klucel (hydroxypropylcellulose) (HPC) 100 % of control | dose: 400.0 mg/kg/injection, schedule: Q01DX009 (ip), vehicle: saline sonified 93 % of control | dose: 400.0 mg/kg/injection, schedule: Q01DX009 (ip), vehicle: saline with Tween-80 92 % of control | [13] 92 % of control

O=C(OCCc1ccccc1)Oc1ccccc1
inactive: [15] 115 % of control | dose: 200.0 mg/kg/injection, schedule: Q01DX009 (ip), vehicle: saline 110 % of control | dose: 400.0 mg/kg/injection, schedule: Q01DX009 (ip), vehicle: saline 103 % of control

O=c1[nH]cnc2c1ncn2Cc1cccc(Cl)c1
inactive: dose: 50.0 mg/kg/injection, schedule: Q04DX002 (ip), vehicle: Klucel (hydroxypropylcellulose) (HPC) 86 % of control | [1] 94 % of control | [2] 91 % of control

COc1ccc2nccc(/C=C/CC3CCN(C(C)=O)CC3)c2c1
inactive: [16] 98 % of control | dose: 12.5 mg/kg/injection, schedule: Q04DX003 (ip), vehicle: Klucel (hydroxypropylcellulose) (HPC) 103 % of control | [17] 96 % of control | [4] 107 % of control | [18] 101 % of control | [5] 103 % of control | [14] 102 % of control

Cc1cc2c(cc1C)=NC(=Nc1nc(O)c(O)[nH]1)N=2
inactive: [6] 98 % of control | [7] 96 % of control | dose: 400.0 mg/kg/injection, schedule: Q04DX003 (ip), vehicle: Klucel (hydroxypropylcellulose) (HPC) 91 % of control

c1ccc2c[n+]3ccccc3cc2c1
inactive: dose: 6.25 mg/kg/injection, schedule: Q01DX009 (ip), vehicle: saline 103 % of control | [16] 100 % of control | [17] 111 % of control

CCOC(=O)c1cc(Cl)ccc1O
inactive: [9] 89 % of control | [10] 92 % of control | dose: 400.0 mg/kg/injection, schedule: Q04DX002 (ip), vehicle: saline with Tween-80 92 % of control

CCOc1cc(-c2nc(-c3ccc(N=Cc4ccc(N(CCCOS(C)(=O)=O)CCCOS(C)(=O)=O)cc4C)cc3)cs2)ccc1OCc1ccccc1
inactive: [11] 91 % of control | [12] 86 % of control | [13] 89 % of control

O=[N+]([O-])c1ccc(/C(=C/c2ccccc2)[n+]2ccccc2)cc1
inactive: dose: 10.0 mg/kg/injection, schedule: Q01DX001 (ip), vehicle: saline 106 % of control | dose: 20.0 mg/kg/injection, schedule: Q01DX001 (ip), vehicle: saline 100 % of control | dose: 40.0 mg/kg/injection, schedule: Q01DX001 (ip), vehicle: saline 100 % of control

O=C1/C(=N/O)CCc2ccccc21
inactive: [18] 102 % of control | [8] 103 % of control | [15] 103 % of control | dose: 200.0 mg/kg/injection, schedule: Q01DX001 (ip), vehicle: carboxymethylcellulose (CMC) 97 % of control
